Assay: Reversal of guanabenz-induced anesthesia and hypothermia by antagonists
Assay type: in vivo, rat
Conditions: guanabenz-treated rats (4 mg I.P.); Yohimbine 10 mg I.P.
Protocol: The effect can also be partially reversed, or reversed in stages, if desired, by administering several smaller aliquots of the antagonist.
Room temperature was 21.5° C. […] The control rats, injected only with the carrier dextrose solution, maintained a relatively constant temperature during the entire test period under identical conditions of the test.

Compound | effect on guanabenz-induced anesthesia | effect on guanabenz-induced hypothermia (body temperature)
COC(=O)[C@@H]1[C@H]2C[C@H]3c4[nH]c5ccccc5c4CCN3C[C@@H]2CC[C@@H]1O [Yohimbine] | brought out of anesthesia | hypothermia was simultaneously reversed

Same assay, conditions: rat, in vivo

Compound | antagonism of both the hypothermic and anesthetic effects of guanidino compounds | antagonism of the hypothermic effect substantially without reducing the anesthetized condition
Cn1c(=O)c2c(ncn2CC(=O)NCc2nc3ccccc3[nH]2)n(C)c1=O [Compound 96, 2-(Theophylline-7-acetamido)-2-methylbenzimidazole] | reverse both the hypothermic and anesthetic effects | –
C=CCN1CC[C@]23c4c5ccc(O)c4O[C@H]2C(=O)CC[C@@]3(O)[C@H]1C5 [Naloxone] | not found to be a useful antagonist | –
COC(=O)[C@@H]1[C@H]2C[C@H]3c4[nH]c5ccccc5c4CCN3C[C@@H]2CC[C@@H]1O [Yohimbine] | reverse both the hypothermic and anesthetic effects | –
c1ccc(CC2=NCCN2)cc1 [tolazoline] | – | effect-specific alpha2-antagonists

Same assay, conditions: six anesthetized rats also injected with aminophylline, then tolazoline

Compound | reversal of anesthesia-hypothermia induced by guanabenz | time until anesthesia-hypothermia reversed and body temperature normal [min]
c1ccc(CC2=NCCN2)cc1 [tolazoline] | completely reversed | ≤ 25

Assay: Activities and properties of the compounds (Table III codes listed as Specific Properties in Table IV)
Conditions: not given
Source text: Certain of the compounds produce a profound hypothermia, but without anesthetizing. […] Table III, following, sets forth a list of the other properties of these guanidino compounds, which arise from their alpha-adrenergic agonist activity, combined with any inherent activity of the reactants chosen to achieve the final compound.
Except for items numbered 22 and 24–28 in Table III, substantially all of the guanidino compounds of this invention, as a result of their structure-activity relationship, are potent with respect to all of the above activities. However, as would be expected, various compounds have different, higher levels of, activities and properties which are listed as “Specific Properties”, with the Compounds numbered, in Table IV, below, according to the numbers in Tables I and II.

Compound | Specific Properties
1,2-Bis(theophylline-7-acetamido)-ethane [Compound 164] | 3, 15, anesthesia antagonist
3-(Guanidinoacetoxy)-estrone [Compound 148] | 27
3-(PGE2carbonyl)-3-estrone ester [Compound 156] | 27 (some agonist activity)

Same assay, conditions: codes of Table III; […]

Compound | Specific Properties
2-(2,6-Diisopropylanilino)-2-methyleneimidazole [Compound 101] | adrenergic antagonist
4-4′-(1,2-Diethyl-1,2-ethenediyl)-4-guanidinoacetoxyphenyl-4′-(6-hydroxy-2,5,7,8-tetramethylchroman-2-carbonyl)-phenol ester [Compound 143] | 27 (Estrogenic antagonist (breast cancer treatment))
4-(PGE2carbonylphenyl)-4-4′(1,2-diethyl-1,2-ethenediyl)-4-phenol [Compound 157] | 27 (some agonist activity)
5-Methoxy-2-methyl-3-indoleacetamidoguanidine [Compound 103] | 5
7-(3,5-Dichorophenylhydrazido)-7-acetyltheophylline [Compound 102] | 3, 14, 16, 17 antagonist
17-(PGE1carbonyl)-17-cyproterone ester [Compound 154] | 26 (Androgenic antagonist)
C[N+](C)(C)CCOC(=O)CNC(=N)N [Compound 32] | 1, 15, cholinergic
COc1cc(CC(=O)Oc2ccc3[nH]cc(CCN)c3c2)cc(OC)c1OC [Compound 74, 5-(3,4,5-Trimethoxyphenylacetoxy)-tryptamine] | 5
CC(=O)[C@@]1(OC(=O)CNC(=N)N)CCC2C3C=C(Cl)C4=CC(=O)C5C[C@@H]5C4(C)C3CCC21C (stereo partly shown) [Compound 129, 6-Chloro-1,2,Dihydro-17-guanidinoacetoxy-3′H-cyclopropa[1,2]pregna-1,4,6-triene-3,20-dione] | 26 (Androgenic antagonist)
N-(2,6-Dichlorbenzylidene)-3-(5-hydroxyindole)ethylamine [Compound 78] | 5
N-(PGE1carboxamido)-1-aminophthalazine [Compound 152] | 6–11 (anti-impotence)
N-(PGE1carboxamido)-guanidine [Compound 151] | 6–11 (anti-impotence)
N-[(6-PGE1carbonyl)-2,5,7,8-tetramethylchroman-2-carboxamido]-1-aminophthlazine [Compound 153] | 6–11 (anti-impotence)

Same assay, conditions: codes of Table III; higher levels of activity

Compound | Specific Properties
2-(3,4,5-Trimethoxybenzylidineamino)-2-methylbenzimidazole [Compound 100] | adrenergic antagonist
17-[2-6-(N-1-Aminophthalazino-1-amidopropionyl)-2,5,7,8-tetramethylchroman-2-carbonyl]-17-cyproterone ester [Compound 140] | 26 (ESP Topical to treat male pattern
Cl.Cn1c(=O)c2c(ncn2CC(=O)Nc2nc(N)nc(NC(=O)C[N+](C)(C)C)n2)n(C)c1=O [Compound 31, 2-(Amino)-4-(1-carboxamido-N,N,N-trimethylmethaniminium)-6-(theophylline-7-acetamido)-1,3,5-s-triazine] | 2, 3, 15, cholinergic
N=C(N)NNC(=O)Cc1c[nH]c2ccc(O)cc12 [Compound 38, 5-Hydroxyindole-3-acetamidoguanidine] | 5
Cn1c(=O)c2c(ncn2CC(=O)NCc2nc3ccccc3[nH]2)n(C)c1=O [Compound 96, 2-(Theophylline-7-acetamido)-2-methylbenzimidazole] | 3, adrenergic antagonist, 12
COc1cc(N=Cc2ncc[nH]2)cc(OC)c1OC [Compound 98] | adrenergic antagonist
N=C(N)c1ccc(C(=O)NC(=O)Cc2c(Cl)cccc2Cl)cc1 [Compound 99, 4-(Amidino)-N-(2,6-dichlorophenylacetyl)-benzamide] | adrenergic antagonist
COc1cc(CNC(=O)CNC(=N)N)ccc1O [Compound 104, N-(4-Hydroxy-3-methoxybenzyl)-guanidinoacetamide] | 2 (Antispasticity and muscle relaxant)
CC/C(=C(/CC)c1ccc(OC(=O)CNC(=N)N)cc1)c1ccc(OC(=O)CNC(=N)N)cc1 [Compound 127, 4,4′-(1,2-Diethyl-1,2-ethenediyl)bis-phenoldiguanidinoacetate ester] | 27 (Estrogenic antagonist (breast cancer treatment))
CC/C(=C(/CC)c1ccc(OC(=O)C2(C)CCc3c(C)c(OC(=O)CNC(=N)N)c(C)c(C)c3O2)cc1)c1ccc(O)cc1 (stereo not shown) [Compound 128, 2-[4,4′-(1,2-Diethyl-1,2-ethenediyl)phenol]-6-(guanidinoacetoxy)-2,5,7,8-tetramethylchroman-2-carbonyl-2-phenol ester] | 27 (Estrogenic antagonist (breast cancer treatment))
Cc1c(C)c2c(c(C)c1O)CCC(C)(C(=O)Nc1ccc(C(=O)NNC(=N)N)cc1)O2 (stereo not shown) [Compound 135, 4-N-(G-Hydroxy-2,5,7,8-tetramethylchroman-2-carboxamido)-4-benzamidoguanidine] | 9–15
CC1(N=Cc2c(Cl)cccc2Cl)N=c2ccccc2=N1 [Compound 162, 2-(2,6-Dichlorobenzylideneamino)-2-methyl-benzimidazole] | 14, 17 adrenergic antagonist, 22, 23
CC(C)c1cccc(C(C)C)c1C=NCC(=N)N [Compound 163, 2,6-Diisopropylbenzylideneaminomethylamidine] | 14, 17, adrenergic antagonist, 22, 23
CCCCCC(O)/C=C/C1C(O)CC(=O)[C@@H]1CCCCCCCC(=O)OCC(O)COC(=O)CCCCCCC[C@H]1C(=O)CC(O)C1/C=C/C(O)CCCCC (stereo partly shown) [Compound 170, 1,3-Di-PGE1-2-propanol-ester] | 8, 9, 12, Vasodilator
CC(=O)[C@@]1(OC(=O)CNC(=N)N)CCC2C3C=C(C)C4=CC(=O)CCC4(C)C3CCC21C (stereo partly shown) [Compound 184, 17-(Guanidinoacetoxy)-megostrol] | 27, Progestin, androgenic
CC(=O)[C@@]1(OC(=O)CNC(=N)N)CCC2C3CC(C)C4=CC(=O)CCC4(C)C3CCC21C (stereo partly shown) [Compound 185, 17-(Guanidinoacetoxy)-medroxyprogesterone] | 27, Progestin, androgenic
CC(=O)[C@@]1(OC(=O)CNC(=N)N)CCC2C3CCC4=CC(=O)CCC4(C)C3CCC21C (stereo partly shown) [Compound 186, 17-(Guanidinoacetoxy)-progesterone] | 1927, Progestin, androgenic
CC/C(=C(\c1ccccc1)c1ccc(OC(=O)CNC(=N)N)cc1)c1ccccc1 [Compound 187, [Z]-2-[4-(1,2-Diphenyl-1-butenyl)-phenoxy]-guanidineacetate ester] | 27, Progestin
N=C(N)c1ccc(OCCCCCOc2ccc(C(=N)N)cc2)cc1 [Compound 192, 4,4′-[Pentanediylbis(oxy)]bis-benzenecarboximidamide, reference compound] | 1, 2, 8–10, 15, 29 Adrenergic antagonist
[H]/N=C(\N/C(=N/[H])Nc1ccc(Cl)cc1)NC(C)C [Compound 217, reference compound] | 1, 4, 6–9, 16, 17, 19 antimalarial
N=C(N)c1ccc(C(=O)NC(c2ccccc2)c2ccccc2)cc1 [Compound 223, N-(Diphenylmethyl)-4-(amidino)-Benzamide] | 1, 2, 4, 6, 9, 10, 14, 15, 17, 23, 29 Adrenergic
N=C(N)c1ccc(C(=O)NC(=O)CCCCC2SCC3NC(=O)NC32)cc1 (stereo not shown) [Compound 233, N-(Hexahydro-2-oxo-1H-thieno[3,4-d]-imidazole-4-pentanoyl)-4-amidinobenzamide] | 1, 2, 4, 6, 9, 10, 14, 15, 17, 23, 29 Antialopecia,
Bis(3,17-PGE2carbonyl)-estradiole ester [Compound 158] | 27 (Estrogenic antagonist (breast cancer treatment))
Bis(3,17-guanidinoacetoxy)estradiaole [Compound 147] | 27 (Estrogenic antagonist (breast cancer treatment))
Guanidinamidocarbonyl-1-cholinepentanoic acid ester [Compound 167] | Adrenergic, cholinergic, 22, 23

— patent publication US7109329B2, “Neurologically active compounds and compounds with multiple activities” (priority 1988, dated 2006)
